Data from PubChem BioAssay AID1963870 (Molecular Pharmacology Branch, DTP, NCI, 2024).

System: 292921-168-R-J2-PDC KRAS tumor spheroid viability
Assay: Anticancer human tumor 292921-168-R-J2-PDC patient-derived pancreatic carcinoma cell line growth inhibition [KRAS2]
Conditions: spheroids with HUVEC and MSC; for viability, T/C: stronger effect = lower value
Text: Multicellular complex tumor spheroid response to RAS pathway inhibitors in combination with a targeted agents in patient-derived cell lines with oncogenic KRAS variants from multiple cancer types
A high-throughput screen of multi-cell type tumor spheroids was designed to identify active combinations of targeted small molecules and KRAS pathway inhibitors. Complex spheroids include a stromal component modeled by human endothelial cells (HUVEC) and fibroblasts modeled by human mesenchymal stem cells (MSCs). The concentration ranges selected for each drug and investigational agent were based upon clinically achievable concentrations if the clinical Cmax of the agent was known.
Compounds. The drugs and investigational agents: BI-3406 (NSC825286), BAY-293 (NSC824723), batoprotafib (TNO155; NSC825523), sotorasib (AMG 510; NSC818433), MRTX1257 (NSC819558), elimusertib (BAY 1895344; NSC800525), molibresib (GSK525762; NSC774829), temuterkib (LY3214996; NSC803410), venetoclax (NSC766270), alisertib (NSC759677), olaparib (NSC753686), talazoparib (NSC767125), erdafitinib (NSC781556), ipatasertib (NSC767898), cabozantinib (NSC761068), nintedanib (NSC756659), abemaciclib (NSC768073), docetaxel (NSC628503), trametinib (NSC758246), and sapanisertib (NSC764658) were obtained from the National Cancer Institute (NCI) Developmental Therapeutics Program Chemical Repository. The FDA-approved anticancer drug set is available from the Developmental Therapeutics Program. […] The stock solutions were prepared in dimethyl sulfoxide (DMSO, Sigma-Aldrich, St. Louis, MO, cat. D2650) at 800-fold the tested concentration and stored at -70 degrees C prior to their use. All drugs and investigational agents were tested over a range starting from a high concentration at or near the clinical Cmax and decreasing in half-log increments. If the clinical Cmax for an agent had not been determined, the highest concentration tested was 10 microM.
Cell Culture. All cells were maintained in an incubator at 37 degrees C and 5% CO2 with 95% humidity. The PDC lines were cultured according to standard operating procedures established by the NCI PDMR (https://pdmr.cancer.gov/sops/default.htm). Briefly, all PDCs were thawed and cultured in Matrigel-coated flasks prepared with a working solution of 1X Ham's F-12 nutrient mix, without supplementation (Invitrogen, Waltham, MA, cat. 11765054), 100 U/mL penicillin-streptomycin (Invitrogen, cat. 15140122), and 2.5% Matrigel (Corning Inc., Corning, NY, cat. 354248) for the first three passages. All PDCs were cultured in complete DMEM/F-12 media containing advanced DMEM/F-12 (Invitrogen, cat. 12634028), 4.9% defined fetal bovine serum, heat inactivated (HyClone Laboratories Inc., Logan, UT, cat. SH30070.03HI), 389 ng/mL hydrocortisone (Sigma-Aldrich, cat. H4001), 9.7 ng/mL human EGF recombinant protein (Invitrogen, cat. PHG0313), 23.4 microg/mL adenine (Sigma-Aldrich, cat. A2786), 97.3 U/mL penicillin-streptomycin (Invitrogen, cat. 15140122), 1.9 mM L-glutamine (Invitrogen, cat. 25030081), and 9.7 microM Y-27632 dihydrochloride (Tocris Bioscience, Bristol, United Kingdom, cat. 1254). The PDCs were cultured in complete DMEM/F12 media without 9.7 microM Y-27632 dihydrochloride for at least two passages prior to the screen. The established cell line HOP-62 was cultured in RPMI 1640 medium, HEPES (Invitrogen, cat. 22400105) with 10% defined fetal bovine serum (HyClone Laboratories Inc., cat. SH30070.03) and 2 mM L-glutamine (Invitrogen, cat. 25030081). The pooled donor HUVEC were cultured in endothelial cell growth medium 2 (PromoCell, Heidelberg, Germany, cat. C-22011) and the hMSC were cultured in mesenchymal stem cell growth medium 2 (PromoCell, cat. C-28009). For all experiments, HUVEC and hMSC were used at passages </=5, while the malignant cell lines were used at passages </=15. […]

[1] = curve of first compound, second compound 0.1 µM
[2] = curve of first compound, second compound 0.316 µM
[3] = curve of first compound, second compound 1 µM
[4] = curve of first compound, second compound 3.16 µM
[5] = curve of first compound, second compound 10 µM
[6] = second compound 0.1 µM, first compound 0.0316 µM
[7] = second compound 0.1 µM, first compound 0.1 µM
[8] = second compound 0.1 µM, first compound 0.316 µM
[9] = second compound 0.1 µM, first compound 1 µM
[10] = second compound 0.1 µM, first compound 3.16 µM
[11] = second compound 0.1 µM, first compound 10 µM
[12] = second compound 0.316 µM, first compound 0.0316 µM
[13] = second compound 0.316 µM, first compound 0.1 µM
[14] = second compound 0.316 µM, first compound 0.316 µM
[15] = second compound 0.316 µM, first compound 1 µM
[16] = second compound 0.316 µM, first compound 3.16 µM
[17] = second compound 0.316 µM, first compound 10 µM
[18] = second compound 1 µM, first compound 0.0316 µM
[19] = second compound 1 µM, first compound 0.1 µM
[20] = second compound 1 µM, first compound 0.316 µM
[21] = second compound 1 µM, first compound 1 µM
[22] = second compound 1 µM, first compound 3.16 µM
[23] = second compound 1 µM, first compound 10 µM
[24] = second compound 3.16 µM, first compound 0.0316 µM
[25] = second compound 3.16 µM, first compound 0.1 µM
[26] = second compound 3.16 µM, first compound 0.316 µM
[27] = second compound 3.16 µM, first compound 1 µM
[28] = second compound 3.16 µM, first compound 3.16 µM
[29] = second compound 3.16 µM, first compound 10 µM
[30] = second compound 10 µM, first compound 0.0316 µM
[31] = second compound 10 µM, first compound 0.1 µM
[32] = second compound 10 µM, first compound 0.316 µM
[33] = second compound 10 µM, first compound 1 µM
[34] = second compound 10 µM, first compound 3.16 µM
[35] = second compound 10 µM, first compound 10 µM
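Note: drug exposure lasted seven days after spheroids formed for three days.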
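Throughout, for viability, T/C: percent of DMSO vehicle control viability which is 100%.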

CC(C)NCC(C(=O)N1CCN(c2ncnc3c2C(C)CC3O)CC1)c1ccc(Cl)cc1 (stereo not drawn) + COc1cc2nc(C)nc(NC(C)c3cc(N)cc(C(F)(F)F)c3)c2cc1OC1CCOC1
IC50 [1]: 8850 nM
IC50 [2]: 8100 nM
IC50 [3]: 5010 nM
IC50 [4]: 1250 nM
IC50 [5]: < 31.6 nM
viability, T/C [6]: 87.5%
viability, T/C [7]: 84.8%
viability, T/C [8]: 78.8%
viability, T/C [9]: 77.8%
viability, T/C [10]: 77.4%
viability, T/C [11]: 46.3%
viability, T/C [12]: 82.7%
viability, T/C [13]: 82%
viability, T/C [14]: 80.5%
viability, T/C [15]: 75.3%
viability, T/C [16]: 74.4%
viability, T/C [17]: 44.7%
viability, T/C [18]: 83.2%
viability, T/C [19]: 71.1%
viability, T/C [20]: 63.8%
viability, T/C [21]: 63.2%
viability, T/C [22]: 60.9%
viability, T/C [23]: 40.2%
viability, T/C [24]: 58.1%
viability, T/C [25]: 51.1%
viability, T/C [26]: 50.2%
viability, T/C [27]: 50.4%
viability, T/C [28]: 46.9%
viability, T/C [29]: 30.6%
viability, T/C [30]: 20.3%
viability, T/C [31]: 19.7%
viability, T/C [32]: 18.6%
viability, T/C [33]: 18%
viability, T/C [34]: 15.4%
viability, T/C [35]: 9.75%

Cn1ncnc1[C@H]1c2n[nH]c(=O)c3cc(F)cc(c23)N[C@@H]1c1ccc(F)cc1
viability, T/C (compound 0.000316 µM): 99.3% [middle of 5 runs]
viability, T/C (compound 0.001 µM): 99.4% [middle of 5 runs]
viability, T/C (compound 0.00316 µM): 93.5% [middle of 5 runs]
viability, T/C (compound 0.01 µM): 89.9% [middle of 5 runs]
viability, T/C (compound 0.0316 µM): 84.1% [middle of 5 runs]
viability, T/C (compound 0.1 µM): 74.5% [middle of 5 runs]
IC50 (curve of compound): > 100 nM

COC(=O)c1ccc2c(C(=Nc3ccc(N(C)C(=O)CN4CCN(C)CC4)cc3)c3ccccc3)c(O)[nH]c2c1 + COc1cc2nc(C)nc(NC(C)c3cc(N)cc(C(F)(F)F)c3)c2cc1OC1CCOC1
IC50 [1]: 856 nM
IC50 [2]: 620 nM
IC50 [3]: 382 nM
IC50 [4]: 221 nM
IC50 [5]: 31.9 nM
viability, T/C [6]: 115%
viability, T/C [7]: 103%
viability, T/C [8]: 83%
viability, T/C [9]: 49.4%
viability, T/C [10]: 4.07%
viability, T/C [11]: 0.28%
viability, T/C [12]: 95.9%
viability, T/C [13]: 96.6%
viability, T/C [14]: 62.1%
viability, T/C [15]: 37.3%
viability, T/C [16]: 19.2%
viability, T/C [17]: 0.44%
viability, T/C [18]: 103%
viability, T/C [19]: 97.5%
viability, T/C [20]: 47%
viability, T/C [21]: 29.5%
viability, T/C [22]: 4.33%
viability, T/C [23]: 0.36%
viability, T/C [24]: 83.9%
viability, T/C [25]: 61.1%
viability, T/C [26]: 46.5%
viability, T/C [27]: 25.1%
viability, T/C [28]: 6.39%
viability, T/C [29]: 0.44%
viability, T/C [30]: 49%
viability, T/C [31]: 44.2%
viability, T/C [32]: 22.8%
viability, T/C [33]: 12.8%
viability, T/C [34]: 1.24%
viability, T/C [35]: 0.24%

CC(C)n1nc(-c2ccc3oc(N)nc3c2)c2c(N)ncnc21
viability, T/C (compound 0.001 µM): 61.9% [middle of 5 runs]
viability, T/C (compound 0.00316 µM): 48.2% [middle of 5 runs]
viability, T/C (compound 0.01 µM): 35.1% [middle of 5 runs]
viability, T/C (compound 0.0316 µM): 27.3% [middle of 5 runs]
viability, T/C (compound 0.1 µM): 22.6% [middle of 5 runs]
IC50 (curve of compound): 2.46 nM [middle of 5 runs]
